Assay results from patent US7399472B2, “Vaccines” (Smithkline Beecham Biologicals, priority 1999, dated 2008).

What was measured:
Lipo-OspA = format: in vivo, Balb/c mice; conditions: 14 days after nasal boost with 5 μg lipo-OspA; 20 μg CpG 1001 and/or 5 μg QS21; compared with PBS
influenza virus = test system: influenza virus; set-up: species or system Balb/c mice; conditions: mouse, in vivo
erythrocytes = test: Haemolysis assay for saponins; conditions: substantially pure samples
Experimental: Fresh blood from guinea pigs is washed with phosphate buffered saline (PBS) 3 times in a desk-top centrifuge. After resuspension to the original volume the blood is further diluted 10 fold in PBS. • 2. 50 μl of this blood suspension is added to 800 μl of PBS containing two-fold dilutions of surfactant or saponin. • 3. After 8 hours the haemolysis is assessed visually or by measuring the optical density of the supernatant. The presence of a red supernatant, which absorbs light at 570 nm indicates the presence of haemolysis. • 4. The results are expressed as the concentration of the first saponin dilution at which hemolysis no longer occurs.
For the purposes of his invention the saponin adjuvant preparation is haemolytic if it lyses the erythrocytes at a concentration of less than 0.1%. As means of reference, substantially pure samples of QuilA, QS21, QS7.

Molecule | intranasal boosting of systemic antibodies to Lipo-OspA (OspA specific IgG and LA2 titres) (Lipo-OspA) | intranasal boosting of IgG or HAI antibodies to Flu strains (influenza virus) | haemolytic saponin as defined in this assay (erythrocytes)
QS21 | improve significantly | do not improve | haemolytic
C[C@@H]1CC[C@@]2(OC1)O[C@H]1[C@@H](O)[C@H]3[C@@H]4CC[C@H]5C[C@@H](O[C@@H]6O[C@H](CO)[C@H](O[C@@H]7O[C@H](CO)[C@@H](O)[C@H](O[C@@H]8OC[C@@H](O)[C@H](O)[C@H]8O)[C@H]7O[C@@H]7O[C@H](CO)[C@H](O)[C@H](O[C@@H]8O[C@H](CO)[C@@H](O)[C@H](O)[C@H]8O)[C@H]7O)[C@H](O)[C@H]6O)[C@H](O)C[C@]5(C)[C@H]4CC[C@]3(C)[C@H]1[C@@H]2C [Digitonin] |  |  | haemolytic
CC1(C)[C@@H](O[C@H]2O[C@H](C(=O)O)[C@@H](O)[C@H](O)[C@H]2O[C@@H]2O[C@H](C(=O)O)[C@@H](O)[C@H](O)[C@H]2O)CC[C@]2(C)[C@H]3C(=O)C=C4[C@@H]5C[C@@](C)(C(=O)O)CC[C@]5(C)CC[C@@]4(C)[C@]3(C)CC[C@@H]12 [glycyrrhizic acid] |  |  | non haemolytic
β-escin |  |  | haemolytic
